Data: PubChem BioAssay (NCI)
Where “and” joins values, the source holds several entries; their conditions need not be identical. Identical values can stand only once.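 Cultured in 96-well plates, cells were exposed to test compound for 48 hours across five concentrations. Abbreviation: GI50, concentration required for 50% inhibition of growth. At the TGI there is no net growth.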

Key:
Experiment in all cases: inhibition of tumour cell growth, NCI panel, 48 h
[1] = tested on: A549 NSCLC
[2] = tested on: DLD-1 colon
[3] = tested on: HOP-92 NSCLC
[4] = tested on: OVCAR-4 ovarian
[5] = tested on: OVCAR-5 ovarian
[6] = tested on: RPMI-8226 leukemia
[7] = tested on: SF-295 CNS
[8] = tested on: SF-539 CNS
[9] = tested on: SR leukemia

Row | Structure (SMILES) | TGI [1] | TGI [2] | TGI [3] | TGI [4] | TGI [5] | TGI [6] | TGI [7] | TGI [8] | TGI [9] | GI50 [1] | GI50 [3] | GI50 [4] | GI50 [5] | GI50 [6] | GI50 [7] | GI50 [8] | GI50 [9] | GI50 [2]
1 | C/C=C(/CCC1NCCC2c3ccccc3NC12)[Si](C)(C)C (stereo not drawn) | 29.2 µM | 17.1 µM | 18.8 µM | 20.9 µM | 20 µM | 13.7 µM | 29.1 µM | 29.5 µM | 12.5 µM |  |  |  |  |  |  |  |  | 
2 | NC(=O)c1ncn(CCN2CCN(C(=O)NCCCCCCNC(=O)N3CCN(CCn4cnc(C(N)=O)c4N)CC3)CC2)c1N | > 100 µM | > 100 µM | > 100 µM | > 100 µM | > 100 µM | > 100 µM | > 100 µM | > 100 µM | > 100 µM |  |  |  |  |  |  |  |  | 
3 | Cc1cc(Cl)ccc1NC(=O)CCCC(=O)C1CCC/C1=N\NC(=O)CC#N (stereo not drawn) | > 100 µM | > 100 µM | > 100 µM | > 100 µM | > 100 µM | > 100 µM | > 100 µM | > 100 µM |  |  |  |  |  |  |  |  |  | 
4 | COc1cccc(NC(=O)C(C)(C)C)c1SSc1c(NC(=O)C(C)(C)C)cccc1OC | > 100 µM | > 61.8 µM | > 86 µM | > 56.3 µM | 53.2 µM | 51 µM | > 100 µM | 45.5 µM | 55.3 µM |  |  |  |  |  |  |  |  | 
5 | O=C(CC1(O)C(=O)Nc2ccccc21)c1ccc(F)cc1 (stereo not drawn) | > 100 µM | > 100 µM | > 100 µM | > 100 µM | > 100 µM | > 100 µM | > 100 µM | > 100 µM |  |  |  |  |  |  |  |  |  | 
6 | Cc1cc2nc3ccc(=[N+](C)C)cc-3sc2cc1N | 1.75 µM and 13.9 µM and 11.2 µM | 23.5 µM | 10.1 µM and 38.3 µM and 11.1 µM |  | 3.95 µM and 22.5 µM and 3.42 µM |  | 5.27 µM and 14.5 µM and 4.83 µM | 1.64 µM and 8.97 µM and 1.55 µM |  | 0.336 µM and 0.381 µM | 1.44 µM and 1.76 µM | 0.21 µM and 0.146 µM | 1.37 µM and 0.833 µM | 0.218 µM and 0.0867 µM | 0.473 µM and 0.554 µM | 0.343 µM and 0.349 µM | 0.419 µM and 0.544 µM | 
7 | Cn1c(=O)c2ccc(-c3ccc(Br)cc3)nc2n(C)c1=O | > 100 µM | > 100 µM | > 100 µM | > 100 µM | > 100 µM | > 100 µM | > 100 µM | > 100 µM | > 100 µM |  |  |  |  |  |  |  |  | 
8 | COC(=O)C[CH2][Ge]([CH3])([CH3])[S]c1ccccc1 | > 100 µM | 42.9 µM | 92.8 µM | > 100 µM | > 100 µM | 58.1 µM | 62.3 µM | 39.8 µM |  | 30.6 µM | 17.7 µM | 25.3 µM | 29.5 µM | 22.4 µM | 18 µM | 21.1 µM |  | 20.3 µM
9 | O=C(/C=C/c1ccccc1Cl)c1cccc2ccccc12 | 34 µM | 25.1 µM | 34.9 µM | 16.6 µM | 26.7 µM | 91 µM | 25.4 µM | 23.3 µM | 9.16 µM |  |  |  |  |  |  |  |  | 
10 | CC(=O)[CH-]C(=O)c1ccccc1.CC(=O)[CH-]C(=O)c1ccccc1.CC[C@H](/C=C/C(C)[C@H]1CCC2[C@@H]3CC=C4C[C@@H]([O-])CC[C@]4(C)C3CC[C@@]21C)C(C)C.CC[O-].[Ti+4] (stereo partly drawn) | > 100 µM | > 100 µM | > 100 µM | > 100 µM | > 100 µM | > 100 µM | > 100 µM | > 100 µM |  | > 100 µM | 95.3 µM | > 100 µM | > 100 µM | > 100 µM | > 100 µM | > 100 µM |  | > 100 µM
11 | Cc1ccc(NC(=O)CC/C(CC(=O)C(C)(C)C)=N/NC(=O)C[N+](C)(C)C)cc1C | 59.4 µM | > 100 µM |  | > 100 µM | > 100 µM |  | > 100 µM | 44.8 µM | > 100 µM |  |  |  |  |  |  |  |  | 
12 | COC(C(=O)C(O)C(C)O)C1Cc2cc3cc(OC4CC(OC5CC(O)C(O)C(C)O5)C(O)C(C)O4)c(C)c(O)c3c(O)c2C(=O)C1OC1CC(OC2CC(O)C(OC3CC(C)(O)C(O)C(C)O3)C(C)O2)C(O)C(C)O1 (stereo not drawn) |  | 150 ng/mL | 80 ng/mL and 82 ng/mL | 269 ng/mL and 143 ng/mL |  | 507 ng/mL and 191 ng/mL |  |  | 112000 ng/mL and > 150000 ng/mL | 12.6 ng/mL and 1.27 ng/mL | 11.2 ng/mL and 3.21 ng/mL | 24.2 ng/mL and 1.92 ng/mL | 13 ng/mL and 3.6 ng/mL | 11.2 ng/mL and 1.64 ng/mL | 18.5 ng/mL and 0.389 ng/mL | 11.2 ng/mL and 0.474 ng/mL | 11.2 ng/mL and 1910 ng/mL | 0.0828 ng/mL
13 | Cc1cc(=O)n2c3c(c4c(cc13)c(CO)cc(=O)n4C)OC2 | > 100 µM | > 100 µM | 97.1 µM | > 100 µM | 72.3 µM | > 100 µM | > 100 µM | 51.5 µM |  |  |  |  |  |  |  |  |  | 
14 | CC1(c2cccc(N)c2)C2C(=O)NC(=O)C1C(=O)NC2=O (stereo not drawn) | > 100 µM | > 100 µM | 57.3 µM | > 100 µM | > 100 µM | 40.3 µM | 58.8 µM | 81.7 µM |  |  |  |  |  |  |  |  |  | 
15 | CSc1nc2c(nc(N)n2C2OC(COC(C)=O)C(OC(C)=O)C(OC(C)=O)C2OC(C)=O)c(=O)n1C (stereo not drawn) | > 100 µM | > 100 µM | > 100 µM | > 100 µM | > 100 µM | > 100 µM | > 100 µM | > 100 µM |  |  |  |  |  |  |  |  |  | 
16 | Cn1c2ccccc2c(=O)c2c(O)cc3c(c21)CC(C1(C)CO1)O3 (stereo not drawn) | 28.2 µM | 26.1 µM | 30.8 µM | 31.2 µM | 23.4 µM | 22.6 µM | 39.2 µM | 10.8 µM |  |  |  |  |  |  |  |  |  | 
17 | C=C1COC(O)(C2OCOC(C3CC(=O)NC(=O)C3)C2O)C1C (stereo not drawn) | 0.0303 µM and 0.0326 µM | 0.0556 µM and 0.0675 µM | 0.0354 µM and 0.045 µM | 0.0181 µM and 0.0242 µM | 0.0499 µM and 0.0546 µM | 0.0063 µM and 0.0127 µM and 0.0451 µM | 0.018 µM and 0.0423 µM | 0.0064 µM and 0.00602 µM | 0.00841 µM | 0.00282 µM | 0.00585 µM and 0.0117 µM |  | 0.00331 µM and 0.017 µM | 0.00236 µM | 0.00249 µM | 0.00165 µM |  | 0.0109 µM
18 | CSc1ccc(OCC2OC2O)cc1 (stereo not drawn) | > 100 µM | > 100 µM | > 100 µM | > 100 µM | > 100 µM | 99.5 µM | > 100 µM | > 100 µM | > 100 µM |  |  |  |  |  |  |  |  | 
19 | COC(=O)NN1C(C)=C(C(=O)OC)C2(C#N)C(C(=O)OC)=C(C)N(NC(=O)OC)C12N (stereo not drawn) | > 100 µM | > 100 µM | > 100 µM | > 100 µM | > 100 µM | > 100 µM |  | > 100 µM |  |  |  |  |  |  |  |  |  | 
20 | C/C(=N\NC(=S)N1CCN(C2CCCCCC2)CC1)c1ccccn1 | 1.86 µM | 1.96 µM | 3.05 µM | 3.12 µM | 3.01 µM |  | 5.67 µM and 2.91 µM | 2.5 µM and 2.01 µM | 1.06 µM |  | 0.00788 µM |  |  | < 0.001 µM | 0.00302 µM | 0.0294 µM |  | < 0.001 µM
21 | COC(=O)NC(=Nc1ccc(Oc2ccccc2)cc1NC=O)NC(=O)OC | > 100 µM | > 100 µM | > 100 µM | > 100 µM | > 100 µM | > 100 µM | > 100 µM | 2.49 µM |  |  |  |  |  |  |  |  |  | 
